Source: patent publication US20060183759A1, “Tissue transglutaminase inhibitors” (priority 2004, published 2006)
Where two headings read alike, the source gives them in different places.

Assays:
[1] = target: T1, transglutaminase 2 (TGase 2) (Homo sapiens, UniProt P21980); test: TGase 2 transpeptidase fluorescence assay: incorporation of KXD into N,N-dimethylated-casein (Std and FPC formats); type: biochemical; conditions: for TGase 2 inhibitory activity, SAR comment in words (relative to parent compound): qualitative comparison
T1 sequence (P21980 1-687): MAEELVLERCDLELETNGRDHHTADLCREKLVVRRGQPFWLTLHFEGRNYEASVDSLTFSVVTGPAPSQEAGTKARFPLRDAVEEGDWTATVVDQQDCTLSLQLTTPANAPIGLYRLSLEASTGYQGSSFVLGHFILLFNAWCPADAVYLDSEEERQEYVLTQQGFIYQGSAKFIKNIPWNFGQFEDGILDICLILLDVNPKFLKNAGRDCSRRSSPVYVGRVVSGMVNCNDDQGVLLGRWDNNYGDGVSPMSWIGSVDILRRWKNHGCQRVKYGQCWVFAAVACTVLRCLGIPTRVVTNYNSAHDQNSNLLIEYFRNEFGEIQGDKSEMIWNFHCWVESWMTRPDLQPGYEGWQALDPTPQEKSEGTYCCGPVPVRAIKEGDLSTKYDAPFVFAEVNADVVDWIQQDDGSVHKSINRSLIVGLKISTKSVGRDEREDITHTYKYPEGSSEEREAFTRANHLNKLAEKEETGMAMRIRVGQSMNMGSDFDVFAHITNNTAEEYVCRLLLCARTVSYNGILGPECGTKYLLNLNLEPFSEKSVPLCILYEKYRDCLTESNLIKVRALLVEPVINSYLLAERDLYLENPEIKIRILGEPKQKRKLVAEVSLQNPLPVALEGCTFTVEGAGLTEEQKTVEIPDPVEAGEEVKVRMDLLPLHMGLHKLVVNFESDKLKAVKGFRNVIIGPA
Description: Transpeptidase activity was monitored as the increase in fluorescence intensity (FI) that accompanies incorporation of the dansylated Lys derivative, α-N-Boc-Lys-CH2-CH2-dansyl (KXD), into the protein substrate, N,N-dimethylated-casein (NMC).
Therefore, a method was used in which full progress curves (FPC) were recorded for the TGase-catalyzed reaction of KXD with NMC in the presence of inhibitor (Table 1-4). Reactions were initiated by enzyme addition to a solution of substrate and inhibitor. […] From such progress curves, IC50 values were calculated using the following equation: IC50=[I]/{(vc/vss)−1}. Progress curves recorded at several inhibitor concentrations were used to determine FPC IC50 values (Table 1-4).

[2] = target: T1, transglutaminase 2 (TGase 2); test: as above; type: biochemical; conditions: standard format (Std): reactions terminated after 60 min, FI recorded, four-parameter fit
[3] = full progress curves (FPC), IC50=[I]/{(vc/vss)−1}, from steady-state velocity, read-out: IC50 (μM, FPC)
[4] = summary of FPC values, read-out: FPC IC50 values

Row | Structure (SMILES) | IC50 [1, 3] [µM] | IC50 [1, 4] [µM] | IC50 [2] [µM] | TGase 2 inhibitory activity, SAR comment in words (relative to parent compound) [1]
1 | NNC(=O)CSc1nc2scc(-c3ccccc3)c2c(=O)n1-c1cccc(F)c1 [986-19, [3-(3-Fluorophenyl)-4-oxo-5-phenyl-3,4-dihydrothieno[2,3-d]pyrimidin-2-ylsulfanyl]acetic acid hydrazide] | 0.18 | < 0.16 | 0.25 | –
2 | NNC(=O)CSc1nc2sc3c(c2c(=O)n1-c1cccc(F)c1)C(c1ccccc1)CCC3 (centres unmarked) [986-44, [3-(3-Fluorophenyl)-4-oxo-5-phenyl-3,4,5,6,7,8-hexahydrobenzo[4,5]thieno[2,3-d]pyrimidin-2-ylsulfanyl]acetic acid hydrazide] | 0.17 | – | 0.93 | –
3 | NNC(=O)CSc1nc2scc(-c3ccc(F)cc3)c2c(=O)n1-c1ccccc1 [986-08, [5-(4-Fluorophenyl)-4-oxo-3-phenyl-3,4-dihydrothieno[2,3-d]pyrimidin-2-ylsulfanyl]acetic acid hydrazide] | 0.29 | – | 0.8 | –
4 | CCN(CC)CCCOc1ccccc1-c1csc2nc(SCC(=O)NN)n(-c3cccc(F)c3)c(=O)c12 [986-35, [5-[2-(3-Diethylaminopropoxy)phenyl]-3-(3-fluorophenyl)-4-oxo-3,4-dihydrothieno[2,3-d]pyrimidin-2-ylsulfanyl]acetic acid hydrazide] | – | – | 4.8 | decreased inhibitory activity
5 | NNC(=O)CSc1nc2scc(-c3ccc(F)cc3)c2c(=O)n1-c1ccc(F)cc1 [986-09, [3,5-Bis-(4-fluorophenyl)-4-oxo-3,4-dihydrothieno[2,3-d]pyrimidin-2-ylsulfanyl]acetic acid hydrazide] | 0.67 | – | 1.5 | –
6 | COc1cccc(-c2csc3nc(SCC(=O)NN)n(-c4cccc(F)c4)c(=O)c23)c1 [986-32, [3-(3-Fluorophenyl)-5-(3-methoxyphenyl)-4-oxo-3,4-dihydrothieno[2,3-d]pyrimidin-2-ylsulfanyl]acetic acid hydrazide] | 0.14 | < 0.16 | 0.21 | –
7 | NNC(=O)CSc1nc2ccccc2c(=O)n1-c1ccccc1 [986-03, (4-Oxo-3-phenyl-3,4-dihydroquinazolin-2-ylsulfanyl)acetic acid hydrazide] | – | – | 18 | decreased activity
8 | NNC(=O)CSc1nc2scc(-c3ccccc3)c2c(=O)n1-c1ccccc1 [986-01, (4-Oxo-3,5-diphenyl-3,4-dihydro-thieno[2,3-d]pyrimidin-2-ylsulfanyl)acetic acid hydrazide] | 0.25 | – | 0.8 | –
9 | NNC(=O)CSc1nc2scc(-c3ccccc3)c2c(=O)n1-c1cc(F)ccc1F [986-26, [3-(2,5-Difluorophenyl)-4-oxo-5-phenyl-3,4-dihydrothieno[2,3-d]pyrimidin-2-ylsulfanyl]acetic acid hydrazide] | 0.23 | – | 0.59 | –
10 | NNC(=O)CSc1nc2scc(-c3ccccc3)c2c(=O)n1-c1ccccc1F [986-18, [3-(2-Fluorophenyl)-4-oxo-5-phenyl-3,4-dihydrothieno[2,3-d]pyrimidin-2-ylsulfanyl]acetic acid hydrazide] | 0.16 | – | 0.5 | –
11 | NNC(=O)CSc1nc2scc(-c3ccccc3)c2c(=O)n1-c1cc(F)cc(F)c1 [986-27, [3-(3,5-Difluorophenyl)-4-oxo-5-phenyl-3,4-dihydrothieno[2,3-d]pyrimidin-2-ylsulfanyl]acetic acid hydrazide] | 0.22 | – | 0.48 | –
12 | Cc1sc2nc(SCC(=O)NN)n(-c3ccccc3)c(=O)c2c1-c1ccccc1 [986-13, (6-Methyl-4-oxo-3,5-diphenyl-3,4-dihydrothieno[2,3-d]pyrimidin-2-ylsulfanyl)acetic acid hydrazide] | 0.16 | < 0.16 | 1.5 | increased activity
13 | NNC(=O)CSc1nc2scc(-c3ccccc3)c2c(=O)n1-c1ccc(F)cc1 [986-07, [3-(4-Fluorophenyl)-4-oxo-5-phenyl-3,4-dihydrothieno[2,3-d]pyrimidin-2-ylsulfanyl]acetic acid hydrazide] | 0.32 | – | 1.3 | –
14 | Cc1sc2nc(SCCC(=O)NN)n(-c3ccccc3)c(=O)c2c1-c1ccccc1 [986-22, 3-(6-Methyl-4-oxo-3,5-diphenyl-3,4-dihydrothieno[2,3-d]pyrimidin-2-ylsulfanyl)propionic acid hydrazide] | – | – | 1.3 | diminished activity
15 | NNC(=O)CSc1nc2sc(-c3ccccc3)cc2c(=O)n1-c1ccccc1 [986-29, (4-Oxo-3,6-diphenyl-3,4-dihydrothieno[2,3-d]pyrimidin-2-ylsulfanyl)acetic acid hydrazide] | – | – | > 20 | loss of inhibitory activity
16 | COc1cccc(-n2c(SCC(=O)NN)nc3scc(-c4ccccc4)c3c2=O)c1 [986-21, [3-(3-Methoxyphenyl)-4-oxo-5-phenyl-3,4-dihydrothieno[2,3-d]pyrimidin-2-ylsulfanyl]acetic acid hydrazide] | 0.47 | – | 0.82 | –
17 | NNC(=O)COc1nc2scc(-c3ccccc3)c2c(=O)n1-c1ccccc1 [986-30, (4-Oxo-3,5-diphenyl-3,4-dihydrothieno[2,3-d]pyrimidin-2-yloxy)acetic acid hydrazide] | – | – | 4.5 | decreased activity
